Results: patent US20240382590A1, “NOVEL TUMOR-SPECIFIC ANTIGENS FOR CANCER STEM CELLS AND USES THEREOF” (UNIVERSITÉ DE MONTRÉAL, priority 2021, published 2024)
“Also recorded” adds a separate entry of the source.

Tests used:
CD8+ T cells [1] = test: FEST assay (functional expansion of specific T cells, TCR Vβ CDR3 sequencing); assay type: cell-based, human; conditions: for Number of TCRβ clonotypes specifically expanded: FEST assay, donor D12, stimulation with a single peptide or a pool; for TCRß clonotype (TCRß CDR3 sequence) amplified: Table 3B, in vitro stimulation with peptide alone or pool, donor D12
Procedure: In vitro peptide-specific T cell expansion. Peptide-specific CD8^+ T cells from 4 healthy donors were expanded in vitro (D11, D12, D13, and D14). The expanded cells from D12 were used for FEST and tetramer staining assays, whereas the expanded cells from D11, D13, and D14 were used only for tetramer staining assays.
T cells were cultured as previously described, with minor modifications (Danilova et al., 2018). Briefly, on day 0, thawed PBMCs from each healthy donor (BioIVT) were T cell-enriched using the Human Pan T cell isolation kit (Miltenyi Biotec). T cells were resuspended at 2×10^6/mL in AIM V media supplemented with 50 μg/mL gentamicin (ThermoFisher Scientific) and 1% HEPES. The T cell-negative fraction was irradiated at 30 Gy, washed, and resuspended at 2×10^6/mL in AIM V media supplemented with 50 μg/mL gentamicin and 1% HEPES. 2.5 ml per well of both T cells and irradiated T cell-depleted cells were added to a 6-well plate, along with either a peptide alone, a peptide pool (up to 6 MAPs per pool, 1 μg/mL final concentration for each MAP) or without peptide. Cells were cultured for 10 days at 37° C., 5% CO2. On day 3 and 7, half the culture media was replaced with fresh culture media containing 100 IU/mL IL-2, 50 ng/mL IL-7, and 50 ng/mL IL-15 (day 3) and 200 IU/mL IL-2, 50 ng/mL IL-7, and 50 ng/mL IL-15 (day 7). On day 10, thawed PBMCs from the same donor were used to generate a new batch of T cell-depleted cells. These cells were irradiated at 30 Gy and added to cultures at a 1:1 T cell:non-T cell ratio, along with 1 μg/mL of relevant peptide(s) or without peptide. On day 13 and 17, at least half the culture media was replaced with fresh culture media (final concentrations: 100 IU/mL IL-2, 25 ng/mL IL-7, and 25 ng/mL IL-15). On day 20, cells were harvested to perform tetramer staining and/or FEST assays.
FEST assays. For FEST assays, CD8^+ cells were further isolated using the Human CD8^+ T Cell Isolation Kit (Miltenyi Biotec). As a negative control, CD8^+ T cells were also isolated from freshly thawed uncultured PBMCs of the same healthy donor. DNA was extracted from CD8^+ T cells using a QIAGEN DNA blood mini kit (QIAGEN). TCR Vβ CDR3 sequencing was performed using the survey resolution of the immunoSEQ platform (Adaptive Biotechnologies). Raw data exported from the immunoSEQ portal were processed with the FEST web tool (www.stat-apps.onc.jhmi.edu/FEST).
Given that paMAPs are appealing targets for immunotherapy, their immunogenicity was tested using in vitro T cell assays with peripheral blood mononuclear cells (PBMCs) from healthy donors. paMAPs were prioritized based on four criteria: i) the immunogenicity score predicted by Repitope, a machine learning algorithm that uses public T-cell receptor (TCR) databases to predict a probability of T cell response (Ogishi and Yotsuyanagi, 2019), ii) the HLA allotype presenting the paMAP (HLAA*02:01 or HLA-B*53:01 shared by the iPSCs and PBMCs donors), iii) expression in minimum 10% of the samples in at least one TOGA cancer type (FIG. 3), and iv) novel MAP status. The […] T cell response against 11 paMAPs was tested using peptide-HLA tetramer staining and/or more sensitive functional expansion of specific T cells (FEST) assays (Danilova et al., 2018). In FEST assays, TCR sequencing is performed on T cells stimulated or not with synthetic paMAPs. T cells were stimulated in vitro with autologous T cell-depleted PBMCs pulsed with individual or pooled (n=5 or 6) paMAPs (Tables 3A-B).

CD8+ T cells [2] = test: Peptide-HLA tetramer staining after in vitro peptide-specific T cell expansion; assay type: cell-based, human; conditions: healthy donor PBMCs after 20 days in vitro stimulation
Procedure: T cells were resuspended at 2×10^6/mL in AIM V media supplemented with 50 μg/mL gentamicin (ThermoFisher Scientific) and 1% HEPES. […] Cells were cultured for 10 days at 37° C., 5% CO2. On day 3 and 7, half the culture media was replaced with fresh culture media containing 100 IU/mL IL-2, 50 ng/mL IL-7, and 50 ng/mL IL-15 (day 3) and 200 IU/mL IL-2, 50 ng/mL IL-7, and 50 ng/mL IL-15 (day 7). On day 10, thawed PBMCs from the same donor were used to generate a new batch of T cell-depleted cells.

cytolytic T lymphocytes = conditions: MAGEA4-derived paMAPs; cited from earlier work
iPSCs [3] = test: MS-based identification of MHC I-associated peptides from iPSCs; set-up: species or system human; conditions: 40 ng/mL IFN-γ, 72 h
Procedure: hiPSC22 cells derived from adult human skin fibroblasts using defective polycistronic retroviruses expressing OCT4, SOX2, KLF4, and c-MYC were obtained from Takara Bio (Cellartis human iPS cell line 22). hiPSC22 cells were cultured in the Cellartis® DEF-CS™ 500 Basal Medium with Additives (Takara Bio) on coated (Cellartis DEF-CS 500 COAT-1, Takara Bio) cell culture vessels according to the manufacturer's instructions. Fibro-iPSC.1 and Fibro-iPSC.2 cells are biological replicates of the same iPS cell line reprogrammed from adult human dermal fibroblasts using lentiviruses expressing OCT4, SOX2, NANOG, and LIN28, as per (Hong et al., 2011), and were provided by Dr. Mick Bathia (McMaster University, Ontario, Canada). Fibro-iPSC.1 and Fibro-iPSC.2 were cultured on Matrigel® (Corning, diluted in DMEM/F-12 from Gibco)-coated cell culture vessels in mTeSR1 medium ([…]), according to the manufacturer's instructions. All iPSCs were passaged using the Gentle Cell Dissociation Reagent ([…]) or were dissociated to single cells using TrypLE Express (Gibco) and washed with DPBS (Gibco) for downstream analyses. After removing 3-5×10^6 iPSCs for RNA-seq and 5×10^6 cells for flow cytometry, iPSCs were pelleted and stored at −80 degrees C. until MS analysis. […]

iPSCs [4] = test: Flow cytometry of surface HLA-A,B,C (QIFIKIT) and pluripotency markers on IFN-γ-treated iPSCs; assay type: cell-based, human; conditions: 40 ng/mL IFN-γ, 72 h
Procedure: hiPSC22 cells derived from adult human skin fibroblasts using defective polycistronic retroviruses expressing OCT4, SOX2, KLF4, and c-MYC were obtained from Takara Bio (Cellartis human iPS cell line 22). hiPSC22 cells were cultured in the Cellartis® DEF-CS™ 500 Basal Medium with Additives (Takara Bio) on coated (Cellartis DEF-CS 500 COAT-1, Takara Bio) cell culture vessels according to the manufacturer's instructions. Fibro-iPSC.1 and Fibro-iPSC.2 cells are biological replicates of the same iPS cell line reprogrammed from adult human dermal fibroblasts using lentiviruses expressing OCT4, SOX2, NANOG, and LIN28, as per (Hong et al., 2011), and were provided by Dr. Mick Bathia (McMaster University, Ontario, Canada). […]
Single-cell suspensions were stained with PerCP-Cy5.5 Mouse anti-Oct3/4, PE Mouse anti-SSEA-1, Alexa Fluor 647 Mouse anti-SSEA-4 antibodies or the respective isotypes (Human and Mouse Pluripotent Stem Cell Analysis Kit, BD Biosciences), APC/Cyanine7 anti-human/mouse SSEA-3 (BioLegend) or the APC-Cy™7 Rat IgM, K Isotype Control (BD Biosciences) according to the manufacturers' instructions. Surface HLA-A,B,C molecules were quantified using a QIFIKIT (FITC conjugate, Agilent Dako) as per the manufacturer's instructions. Flow cytometry experiments were performed on a ZE5 (Bio-Rad), and data were analyzed using the FlowJo software. […]

Substance: ALYPQPPTV (listed as Homo sapiens) [paMAP]
- Number of TCRβ clonotypes specifically expanded (CD8+ T cells [1]): two to four
- TCRß clonotype (TCRß CDR3 sequence) amplified (CD8+ T cells [1]; listed as pa_11): CASSYRTGSAEAFF (SEQ ID NO: 77); also recorded: CASSLGGAYEQYF (SEQ ID NO: 78); also recorded: CASSYPQGGEQFF (SEQ ID NO: 79); also recorded: CATSRGTGVNTEAFF (SEQ ID NO: 80)

Substance: FLLPGVLLSEA (listed as Homo sapiens) [previously reported saMAP from UGT3A2]
- T-cell response (immunogenicity) by peptide-HLA tetramer staining (CD8+ T cells [2]): immunogenic in one donor

Substance: GVYDGREHTV (listed as Homo sapiens) [previously reported paMAP derived from MAGEA4]
- Immunogenic in previous studies (cytolytic T lymphocytes): immunogenic in previous studies

Substance: IFN-γ: recombinant human IFN-γ (Gibco) used to raise MHC I on iPSCs
- More unique MAPs detected than for untreated iPSCs (iPSCs [3]): 1.8-4.5 fold
- Increase in surface HLA-A/B/C levels (iPSCs [4]; average of three fibroblast-derived iPSC samples): 34 fold
- Expression of canonical pluripotency markers (iPSCs [4]; iPSCs): without affecting the expression of canonical pluripotency markers

Substance: KLAQIIRQV (listed as Homo sapiens) [paMAP]
- T-cell response (immunogenicity) by peptide-HLA tetramer staining (CD8+ T cells [2]): one out of four donors

Substance: KVLEHVVRV (listed as Homo sapiens) [previously reported paMAP derived from MAGEA4]
- Immunogenic in previous studies (cytolytic T lymphocytes): immunogenic in previous studies

Substance: LPMWKALLF (listed as Homo sapiens) [paMAP]
- Number of TCRβ clonotypes specifically expanded (CD8+ T cells [1]): two to four
- TCRß clonotype (TCRß CDR3 sequence) amplified (CD8+ T cells [1]; listed as pa_06): CASSGPGDQPQHF (SEQ ID NO: 83); also recorded: CASSEWGSRAGGGDTQYF (SEQ ID NO: 84)

Substance: SLLGSSEILEV (listed as Homo sapiens) [paMAP]
- Number of TCRβ clonotypes specifically expanded (CD8+ T cells [1]): two to four
- TCRß clonotype (TCRß CDR3 sequence) amplified (CD8+ T cells [1]; listed as pa_12): CASSSRTDTYSPLHF (SEQ ID NO: 81); also recorded: CASSLGRWNSPLHF (SEQ ID NO: 82)
- T-cell response (immunogenicity) by peptide-HLA tetramer staining (CD8+ T cells [2]): one out of four donors

Substance: VTLSTYFHV (listed as Homo sapiens) [paMAP]
- Number of TCRβ clonotypes specifically expanded (CD8+ T cells [1]): two to four
- TCRß clonotype (TCRß CDR3 sequence) amplified (CD8+ T cells [1]; listed as pa_10): CASSKWGSYGYTF (SEQ ID NO: 75); also recorded: CASSLPDTTYEQYF (SEQ ID NO: 76)
